Tested on: doxorubicin-induced aged C57BL6J mice
Experiment: SASP mRNA (IL6, CXCL1, CXCL10, IL1B) in doxorubicin-aged mice, Example 22-6, Table 35
Format: in vivo, mouse
Settings: untreated aged = 100%
Experimental: Eight-week-old male C57BL6J mice (KRIBB Laboratory Animal Resource Center) were acclimated to the experimental environment for one week. Afterwards, the anticancer agent doxorubicin was administered intraperitoneally at a concentration of 10 mg/kg, inducing aging for more than 10 days. The aging-induced mice were randomly assigned to experimental and control groups. LX-403 was mixed with a 10% ethanol solution of PEG400 and administered orally at a concentration of 25 mg/kg or intradermally at a concentration of 1 μM for 21 days. LX-1801 was mixed in distilled water with 4% DMSO, 30% PEG300, and 5% Tween80 and administered intradermally at a concentration of 0.4 μM daily for 21 days. LX-2001 was mixed in PBS and administered intradermally at a concentration of 2 μM daily for 21 days. LX-2002 was mixed in distilled water with 4% DMSO, 30% PEG300, and 5% Tween80 and administered intradermally at a concentration of 2 μM daily for 21 days. […] LX-2005 was mixed in distilled water with 4% DMSO, 30% PEG300, and 5% Tween80 and administered intradermally at a concentration of 90 μM daily for 21 days. LX-2007 was mixed in distilled water with 4% DMSO, 30% PEG300, and 5% Tween80 and administered intradermally at a concentration of 90 μM daily for 21 days. […] LX-3002 was mixed in distilled water with 4% DMSO, 30% PEG300, and 5% Tween80 and administered orally at a concentration of 10 mg/kg daily for 21 days. […] LX-5411 was mixed in 5% phosphate-buffered saline (PBS) and administered orally at a concentration of 10 mg/kg daily for 21 days or intradermally at a concentration of 3 μM. LX-5701 was mixed in PBS and administered orally at a concentration of 360 mg/kg daily for 21 days. LX-6807 was mixed in saline and administered intraperitoneally at a concentration of 1 mg/kg daily for 21 days. The control group received only the solution in the same volume. After the end of drug administration, the methods described in each example below were performed.
Using cDNA synthesized in the same manner as in Example 7-6 of WO2023-085787 A1, qRT-PCR was performed and analyzed for senescence-associated secretory factors (SASPs) like IL6, CXCL1, CXCL10, IL1B, etc. […] The mRNA amount of each factor after aging induction was calculated as 100% and compared with the mRNA amount of each factor after LX-5701 treatment.

## O=C1C2CCN(CC2)C1CNC(=O)C(F)(F)F (centres unmarked) [LX-5701]
Liver
  CXCL1 mRNA (%), Liver: 68 (±14.8) %
  CXCL10 mRNA (%), Liver: 75 (±4.1) %
  IL1β mRNA (%), Liver: 73 (±3.5) %
  IL6 mRNA (%), Liver: 64 (±7.5) %
eWAT
  CXCL1 mRNA (%), eWAT: 74 (±4.7) %
  CXCL10 mRNA (%), eWAT: 69 (±7.0) %
  IL1β mRNA (%), eWAT: 56 (±11.2) %
  IL6 mRNA (%), eWAT: 55 (±15.1) %

Reference: patent publication US20260306460A1, “COMPOSITION FOR REMOVING AND INHIBITING SENESCENT CELLS, AND USES THEREOF” (LIFECEUTIX CO., LTD., priority 2023, published 2026)
